Results as given in patent US12036194B1, “Methods of administering solriamfetol to lactating women” (Axsome Malta Ltd., priority 2022, dated 2024).
Counter-ions that a name gives are not always drawn. Like-named read-outs stand apart in the source and are kept apart here.

Columns and labels:
[1] = Phase 4 open-label single-dose study: pharmacokinetics of solriamfetol in breast milk of healthy postpartum women; format: in vivo, human; details: for Kp / AUC(0-inf) / AUC(0-t) / Cmax / half-life / Tmax: female, human, po, 150 mg; for Kp: breast milk / plasma
Protocol: (§1) A Phase 4, open-label, single-dose study to evaluate the pharmacokinetics (PK) of solriamfetol in the breast milk and plasma of healthy postpartum women following oral administration of a 150 mg solriamfetol tablet.
(§2) The study was conducted in 6 healthy adult lactating women who were between 15 and 37 weeks postpartum and were administered a single oral dose of SUNOSI 150 mg. SUNOSI was excreted in breast milk with a milk to plasma AUC ratio of approximately 2:1. […] The average amount that would be passed to the infant was estimated to be 0.59 mg over 24 hours, which is about 4.0% of the maternal dose on a weight-adjusted basis. The data from the lactation study indicate that SUNOSI is transferred to breastmilk in nursing mothers, with the relative infant dose (RID) is approximately 4% of the maternal weight-adjusted dosage. Data to assess the effects of SUNOSI on a breastfed infant or on milk production is not provided. The developmental and health benefits of breastfeeding should be considered along with the mother's clinical need for SUNOSI and any potential adverse effects on the breastfed child from SUNOSI or from the underlying maternal condition. Breastfed infants should be monitored for adverse reactions, such as agitation, insomnia, anorexia, and reduced weight gain.
(§3) On Day −1, eligible subjects underwent the baseline procedures. On Day 1, 2 hours after a light breakfast, subjects were to receive a single dose of solriamfetol 150 mg with 240 mL of water. Subjects had to fast for approximately 4 hours after the first dose; water was allowed except for 1 hour before and 1 hour after dosing with the study drug.
(§4) Pharmacokinetic analysis of breast milk obtained from both breasts (by pumping) was evaluated prior to dose administration and at intervals up to 72 hours postdose. Blood samples were also collected for plasma solriamfetol quantitation and PK analysis predose and at timepoints up to 72 hours postdose. Solriamfetol breast milk and plasma concentrations were measured using validated bioanalytical methods. Safety was assessed throughout the study by 12-lead ECG, vital sign measurements, the Columbia-Suicide Severity Rating Scale (C-SSRS), and the incidence of adverse events (AE).
Breast milk collection: Solriamfetol concentration in breast milk and plasma was evaluated based on samples collected prior to and postdose on Days 1 to 4. Breast milk was collected from both breasts, using electronic breast pumps, during the following intervals: From −2 to 0 at predose and at 0 to 2, 2 to 4, 4 to 8, 8 to 12, 12 to 18, 18 to 24, 24 to 32, 32 to 40, 40 to 48, and 48 to 72 hours postdose on Day 1. The midpoint of each breast milk collection interval was used as the time variable.
Breast milk was collected as often as needed during the assigned intervals; however, at the end of each interval, breast milk was pumped from both breasts and collected. At the end of each collection interval, all milk expressed from both breasts during that interval was pooled. The milk was thoroughly mixed by gently inverting the collection vessel 10 times to ensure homogeneity in milk composition. The weight and volume of the collected milk during each interval was also recorded.
(§5) Serial blood samples (4 mL) were collected and dispensed into labeled K2EDTA tubes. The actual time of blood collection for all samples was recorded on the eCRF. Solriamfetol concentration in breast milk and plasma were determined using a validated bioanalytical method (LC-MS/MS) at Origin Bioanalytical Laboratory. The analytical range (lower limit of quantitation [LLOQ] to upper limit of quantitation) for plasma solriamfetol was 8.42 to 4210.00 ng/mL, and breast milk solriamfetol was 10.0 to 8000 ng/mL.
Pharmacokinetic parameters were derived with Phoenix® WinNonlin® Version 8.3 (Certara, Inc., Princeton, New Jersey, USA) and/or SAS© Version 9.4 (SAS Institute, Inc., Cary, North Carolina, USA). […]

[2] = Phase 4 open-label single-dose study: pharmacokinetics of solriamfetol in plasma of healthy postpartum women; format: in vivo, human; details: for AUC(0-inf) / AUC(0-t) / Cmax / Vd/F / half-life / Tmax: female, human, po, 150 mg
Protocol: as §1, §2, §3, §4
Blood samples for plasma PK evaluation were collected at the following time points: Predose, 1, 1.5, 3, 6, 8.5, 10, 13, 15, 21, 24, 28, 36, 44, and 72 hours following dosing on Day 1. General study methodology is outlined in Table 6.
as §5
Pharmacokinetic parameters were derived with Phoenix® WinNonlin® Version 8.3 (Certara, Inc., Princeton, New Jersey, USA) and/or SAS© Version 9.4 (SAS Institute, Inc., Cary, North Carolina, USA).
Pharmacokinetic concentrations and parameters were summarized using descriptive statistics, including n, arithmetic mean, SD, coefficient of variation (CV %), median, min, max, Geometric mean (Geo-mean) and the geometric coefficient of variation (Geo-CV %). For the PK parameter tmax, only n, median, minimum, and maximum was presented.

[3] = breast milk, single oral 150 mg solriamfetol tablet, N = 6, hydrochloride
[4] = breast milk, single oral 150 mg, N = 6
[5] = breast milk, single oral 150 mg, N = 6, hydrochloride
[6] = breast milk, single oral 150 mg, N = 6, listed as solriamfetol, hydrochloride
[7] = over 72 hours, single oral 150 mg
[8] = single oral 150 mg solriamfetol tablet, N = 6
[9] = single oral 150 mg solriamfetol tablet, N = 6, hydrochloride
[10] = single oral 150 mg solriamfetol tablet, N = 6, listed as solriamfetol, hydrochloride

With NC(=O)OC[C@H](N)Cc1ccccc1 [Solriamfetol, (R)-2-amino-3-phenylpropyl carbamate (APC) hydrochloride] the “Milk:Plasma Ratio, Arithmetic Mean (CV %)” value ([1]; AUC in breast milk divided by AUC in plasma, single oral 150 mg, N = 6) was 2.136 (35.8), the “time by which near complete excretion in breast milk was observed” value ([1]; after dosing, single oral 150 mg) was at most 24 h and the “Amilk, Geometric Mean” value ([1]; amount excreted in breast milk over 72 hours, single oral 150 mg, N = 6) was 0.5651 mg. For the same molecule, the “Amilk, Arithmetic Mean (CV %)” value ([1]; amount excreted in breast milk over 72 hours, single oral 150 mg, N = 6, hydrochloride) was 0.6880 (67.9) mg, the “Amilk, Arithmetic Mean (CV %)” value ([1]; amount excreted in breast milk over 72 hours, single oral 150 mg, N = 6, listed as solriamfetol, hydrochloride) was 0.6880 mg and the “Lambda_z, Arithmetic Mean (CV %)” value ([1]; breast milk, single oral 150 mg solriamfetol tablet, N = 6) was 0.1446 (18.8) 1/h. The “t1/2, Arithmetic Mean (CV %)” value [1, 3] was 4.954 (21.4) h, the “tmax, Median (min, max)” value [1, 3] was 1.12 h and the “Daily Infant Dose, Geometric Mean” value [1, 4] was 0.5856 mg. The “Relative Infant Dose, Geometric Mean” value [1, 4] was 4.030%, the “Daily Infant Dose, Arithmetic Mean (CV %)” value [1, 5] was 0.6927 (63.5) mg and the “Relative Infant Dose, Arithmetic Mean (CV %)” value [1, 5] was 4.602 (60.6) %. The “Daily Infant Dose, Arithmetic Mean (CV %)” value [1, 6] was 0.6927 mg, the “Relative Infant Dose, Arithmetic Mean (CV %)” value [1, 6] was 4.602% and the “average amount that would be passed to the infant” value ([1]; estimated, over 24 hours, single oral 150 mg) was 0.59 mg. For the same molecule, the “share of the total amount excreted in breast milk over 72 hours” value ([1]; excreted by 8 hours) was “approximately 78%”, the “share of the total amount excreted in breast milk over 72 hours” value ([1]; excreted by 24 hours) was about 98% and the Kp ([1]; AUC in breast milk divided by AUC in plasma, single oral 150 mg, N = 6, read-out: Milk:Plasma Ratio, Geometric Mean) was 2.05. The Kp ([1]; breast milk vs plasma, single oral 150 mg, read-out: solriamfetol exposure/concentrations (Cmax, AUCs) in breast milk relative to plasma) was about 2, the AUC(0-inf) ([1]; breast milk, breast milk, single oral 150 mg solriamfetol tablet, N = 6, read-out: AUC0-inf, Geometric Mean) was 12900 ng·h/mL and the AUC(0-t) ([1]; breast milk, breast milk, single oral 150 mg solriamfetol tablet, N = 6, read-out: AUC0-t, Arithmetic Mean (CV %)) was 13700 ng·h/mL. The AUC(0-t) ([1]; breast milk, breast milk, single oral 150 mg solriamfetol tablet, N = 6, read-out: AUC0-t, Geometric Mean) was 12800 ng·h/mL, the Cmax ([1]; breast milk, breast milk, single oral 150 mg solriamfetol tablet, N = 6, read-out: Cmax, Arithmetic Mean (CV %)) was 2070 ng/mL and the Cmax ([1]; breast milk, breast milk, single oral 150 mg solriamfetol tablet, N = 6, read-out: Cmax, Geometric Mean) was 1860 ng/mL. It also gave a half-life ([1]; breast milk, breast milk, single oral 150 mg solriamfetol tablet, N = 6, read-out: t1/2, Arithmetic Mean (CV %) (converted)) of about 5 h, a half-life ([1]; breast milk, breast milk, single oral 150 mg solriamfetol tablet, N = 6, read-out: t1/2, Geometric Mean (converted)) of 4.87 h and a Tmax ([1]; breast milk, breast milk, single oral 150 mg solriamfetol tablet, N = 6, read-out: tmax, Median (min, max)) of about 1.1 h. The AUC(0-inf) ([1]; breast milk, breast milk, single oral 150 mg solriamfetol tablet, healthy postpartum women N = 6, read-out: AUC0-inf, Arithmetic Mean (CV %)) was 13800 ng·h/mL, the half-life ([1]; breast milk, breast milk, single oral 150 mg, read-out: t1/2 (approximate) (converted)) was about 5 h and the Tmax ([1]; breast milk, breast milk, single oral 150 mg, read-out: tmax range) was 1 to 3 h. The daily infant dose ([1]; further analysis, based on nominal infant weight of 6 kg, maternal single oral 150 mg) was 0.112 mg/kg, the “Arithmetic mean±SD amount excreted in breast milk” value [1, 7] was 0.6880 ± 0.4672 mg and the “cumulative median amount excreted in breast milk” value [1, 7] was 0.67 mg. It also gave an AUC(0-inf) ([2]; single oral 150 mg solriamfetol tablet, N = 6, read-out: AUC0-inf, Geometric Mean) of 6340 ng·h/mL, an AUC(0-t) ([2]; single oral 150 mg solriamfetol tablet, N = 6, read-out: AUC0-t, Arithmetic Mean (CV %)) of 6440 ng·h/mL and an AUC(0-t) ([2]; single oral 150 mg solriamfetol tablet, N = 6, read-out: AUC0-t, Geometric Mean) of 6240 ng·h/mL. The Cmax ([2]; single oral 150 mg solriamfetol tablet, N = 6, read-out: Cmax, Arithmetic Mean (CV %)) was 905 ng/mL, the Cmax ([2]; single oral 150 mg solriamfetol tablet, N = 6, read-out: Cmax, Geometric Mean) was 892 ng/mL and the Vd/F ([2]; single oral 150 mg solriamfetol tablet, N = 6, read-out: Vz/F, Arithmetic Mean (CV %)) was 169 L. For the same molecule, the Vd/F ([2]; single oral 150 mg solriamfetol tablet, N = 6, read-out: Vz/F, Geometric Mean) was 162 L, the half-life ([2]; single oral 150 mg solriamfetol tablet, N = 6, read-out: t1/2, Arithmetic Mean (CV %) (converted)) was 4.8 h and the half-life ([2]; single oral 150 mg solriamfetol tablet, N = 6, read-out: t1/2, Geometric Mean (converted)) was 4.75 h. It also gave a Tmax ([2]; single oral 150 mg solriamfetol tablet, N = 6, read-out: tmax, Median (min, max)) of 1.25 h, an AUC(0-inf) ([2]; single oral 150 mg solriamfetol tablet, healthy postpartum women N = 6, read-out: AUC0-inf, Arithmetic Mean (CV %)) of 6540 ng·h/mL and a half-life ([2]; single oral 150 mg, read-out: t1/2 (approximate) (converted)) of about 5 h. The Tmax ([2]; single oral 150 mg, read-out: tmax range) was 1 to 3 h, the “CL/F, Geometric Mean” value [2, 8] was 23.66 L/h and the “Lambda_z, Arithmetic Mean (CV %)” value [2, 8] was 0.1478 (19.1) 1/h. The “Lambda_z, Geometric Mean” value [2, 8] was 0.1459 h⁻¹, the “CL/F, Arithmetic Mean (CV %)” value [2, 9] was 24.40 (26.8) L/h and the “t1/2, Arithmetic Mean (CV %)” value [2, 9] was 4.804 (15.2) h. The “CL/F, Arithmetic Mean (CV %)” value [2, 10] was 24.40 L/h and the “tmax, Median (min, max)” value [2, 10] was 1 h.
